Series [1] can be described thus: Compound exposure in plasma and liver of HFHC fed male mice. The class given is in vivo. Particulars: C57BL/6J, mouse, oral.
Series [2] deals with HFHC fed male C57BL/6 mice. In words: In-vivo efficacy in high fat high cholesterol diet (HFHC) fed male C57BL/6 mice. Particulars: oral, 3 mg/kg BID, 3 mg/kg QD and 10 mg/kg BID, after 28 days.
Procedure: C57BL/6J male mice were purchased at the age of 8 weeks. After an acclimation period of 1 week, animals were maintained on high fat high cholesterol diet (Research diets) with 60% kcal from fat plus 0.5% (w/w) extra cholesterol (Research diet, D02051401) for a period of 4 weeks. Age matched control animals (n=6) were maintained on normal chow. Mice were dosed with vehicle, test compounds and GW4064 morning (7.00 AM) and evening (5:00 PM) from day 0 to 27. At 28th day, animals were dosed at 7:00 AM and kept on fasting for next 4 hours before blood and tissues collection. Plasma samples separated from collected blood were stored at −20° C. immediately for estimation analysis. The samples were analyzed using the Siemens Dimension RxL Max Clinical chemistry analyzer.
Right liver lobe was used for the test compounds exposure, triglyceride and cholesterol estimation. Liver tissues were dissected, weighed and snap frozen and stored at −80° C. for further analysis of hepatic triglyceride, cholesterol and compound exposure. In brief, stored tissues were thawed to room temperature and triglycerides were extracted by homogenizing 25 mg of liver tissues in 1 ml of 5% Triton X100 (Lot No. 61K01741-Sigma Aldrich) in water. Homogenized tissues were slowly heated to 80° C. in water bath for 5 minutes. The samples were cooled down and again heated to solubilize all the triglycerides into solution. The samples were centrifuged for 5 minutes at 4000 RPM and supernatant was collected for quantification^3 using commercially available kit from ERBA (Lot No. B061832).
Homogenized samples were centrifuge at 13000 g for 10 minutes to remove insoluble material. The organic phase was separated into new tube and air dried at 50° C. to remove chloroform. Thereafter, samples were vacuumed for 30 minutes to remove residue organic solvent. Dried lipids were dissolved in 200 μL of cholesterol assay buffer (provided with Sigma cholesterol assay kit Lot No. B2J210603V), sonicated for 20 minutes and vortexed until mixture was homogenous as mentioned in kit protocol. Samples were diluted with cholesterol assay buffer at (1:10) ratio to fit in standard curve and finally 50 μL of diluted samples were used for the assay.
Compound levels were also measured in the plasma and liver to understand its distribution profile.
In series [3] the test system is FXR related genes (BSEP, SHP) in primary human hepatocytes. In words: Gene expression in human primary hepatocytes (BSEP, SHP). It counts as cell-based. Particulars: 24 hours incubation. The procedure: The test compound was dissolved in buffer to give a 10 mM stock solution. The compound was serially diluted to the desired concentrations and then incubated with human primary hepatocytes for 24 hours at 37° C. in a CO2 incubator. After incubation, the media was removed and the RNA harvested using the Trizol-CHCl3 method and quantified using Nano drop. The RNA was then Reverse Transcribed to cDNA using a superscript vilo cDNA synthesis kit. The cDNA with respective Taqman primers, master mix are then amplified using quantitative RT-PCR system. […] The compounds of examples 2 and 3 upregulate FXR related and disease relevant genes on incubation with primary human hepatocytes. […] It is a uni-directional, ATP-dependent efflux transporter that plays an important role in the elimination of bile salts from the hepatocyte into the bile canaliculi for export into the gastrointestinal tract. FXR also induces the expression of small heterodimer partner (SHP) which controls a complex set of genes in multiple metabolic pathways. It reduces the expression of CYP7A1, a liver-specific enzyme that catalyzes the first and rate-limiting step in one of the two pathways for bile acid biosynthesis.

Read-outs that look alike come from different tables or passages of the source.

Take `Cc1cc(S(=O)[O-])cc2sc(N3[C@@H]4CC[C@H]3C[C@@H](OCc3c(-c5ccccc5OC(F)(F)F)noc3C3CC3)C4)nc12.[Na+]` [Example 3, Sodium 2-(3-((5-cyclopropyl-3-(2-(trifluoromethoxy)phenyl)isoxazol-4-yl)methoxy)-8-azabicyclo[3.2.1]octan-8-yl)-4-methylbenzo[d]thiazole-6-sulfinate]: the concentration at 4 h in series [1] (liver, 3 mg/kg, 3 mg/kg BID oral, 4 hours after last dose on day 28, read-out: Mean compound exposure, Liver) worked out at 88.9 ng/g; in series [1] (liver, 10 mg/kg, 10 mg/kg BID oral, 4 hours after last dose on day 28, read-out: Mean compound exposure, Liver), 198 ng/g; in series [1] (liver, 10 mg/kg, 10 mg/kg QD oral, 4 hours after last dose on day 28, read-out: Mean compound exposure, Liver) it was 176 ng/g; in series [1] (plasma, 3 mg/kg, 3 mg/kg BID oral, 4 hours after last dose on day 28, read-out: Mean compound exposure, Plasma), 3.7 ng/mL; in series [1] (plasma, 10 mg/kg, 10 mg/kg BID oral, 4 hours after last dose on day 28, read-out: Mean compound exposure, Plasma), 11.5 ng/mL; in series [1] (plasma, 10 mg/kg, 10 mg/kg QD oral, 4 hours after last dose on day 28, read-out: Mean compound exposure, Plasma), 5.9 ng/mL. In addition, the “Cholesterol levels in the liver” value in series [2] is “reductions”. The “Cholesterol levels in the plasma” value in series [2] was “reductions”. The Liver triglycerides result in series [2] is “reductions”. The “Expression of FXR related and disease relevant genes (BSEP, SHP)” value in series [3] is reported as “upregulate”.

Values taken from patent US20230096663A1, “FARNESOID X RECEPTOR MODULATING COMPOUNDS AND METHODS OF USING THE SAME” (Inorbit Therapeutics AB, priority 2020, published 2023).
